The target in test [1] is BRD4 (BD1+BD2) bromodomain (Homo sapiens (Human), UniProt O60885). The experiment in a line: BRD4 binding inhibition (AlphaScreen, GST-BRD4 vs tetraacetylated histone H4 peptide). The procedure, abridged: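 AlphaScreen read after 30 min dark incubation at room temperature with glutathione acceptor/streptavidin donor beads (10 μg/ml each). The beads were added to compound plus 100 nM biotin-H4 (K5,8,12,16-acetyl) peptide and 100 nM GST-BRD4 BD1+BD2 in pH 7.4 HEPES/Tween/BSA/DTT buffer.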
In general terms: Bead proximity is the source of the signal in Alpha formats.

Test [2] deals with acute myelogenous leukemia cells (MV-4-11 cells). The experiment in a line: Cytotoxicity to acute myelogenous leukemia cells (MV-4-11 cells), CCK-8. Particulars: Homo sapiens, MV4-11, 72 h.
Where [3] appears, read: GST-BRD4 (BD1+BD2) / biotinylated acetyl-histone H4 (Lys5,8,12,16) peptide, read-out: IC50, BRD4 binding inhibition.
[4] abbreviates: read-out: MV-4-11 Cytotoxicity IC50.
Setting [5] is: read-out: IC50, cytotoxicity against acute myelogenous leukemia cells.
Where [6] appears, read: GST-BRD4 (BD1+BD2) vs biotinylated acetyl-histone H4 peptide, AlphaScreen, read-out: BRD4 IC50.

Like-named read-outs stand apart in the source and are kept apart here.

With `COc1ccc2c(nc(NCCCCNC(=O)CC(C)C)c3nnc(C)n32)c1Cl` [Example 461, [4-(6-chloro-7-methoxy-1-methyl-[1,2,4]triazolo[4,3-a]quinoxaline-4-ylamino)-butyl]-3-methyl-butyramide], the figures for the IC50 in test [1] (setting [3]) and in test [2] (setting [4]) were at most 50 nM and 250 nM, respectively.
The like results for `COc1ccc2c(nc(NCCCCNC(=O)OCC(C)C)c3nnc(C)n32)c1Cl` [Example 462, [4-(6-chloro-7-methoxy-1-methyl-[1,2,4]triazolo[4,3-a]quinoxaline-4-ylamino)-butyl]-carbamic acid isobutylester] were, in that order, at most 50 nM and 600 nM.
With `COc1ccc2c(nc(NCCCCNC(=O)Cc3cccs3)c3nnc(C)n32)c1Cl` [Example 463, N-[4-(6-chloro-7-methoxy-1-methyl-[1,2,4]triazolo[4,3-a]quinoxaline-4-ylamino)-butyl]-2-thiophene-2-yl-acetamide], the values for the IC50 in test [1] (setting [3]), in test [2] (setting [5]) and in test [2] (setting [4]) were at most 50 nM, at most 200 nM and 100 nM, respectively.
With `COc1cc2nc(NCCCCN)c3nnc(C)n3c2cc1C` [Example 465, N^1-(7-methoxy-1,8-dimethyl-[1,2,4]triazolo[4,3-a]quinoxaline-4-yl)-butane-1,4-diamine ditrifluoroacetic acid], the IC50 was 72 nM in test [1] (setting [6]) and 690 nM in test [2] (setting [4]).
As for `COc1cc2nc(NCCCCNC(=O)c3ccccc3Cl)c3nnc(C)n3c2cc1C` [Example 470], the values for the IC50 in test [1] (setting [6]) and in test [2] (setting [4]) were 63 nM and 220 nM, respectively.
For the molecule `COc1cc2nc(NCCCCNC(=O)CC(C)C)c3nnc(C)n3c2cc1C(F)(F)F` [Example 476, N-[4-(7-methoxy-1-methyl-8-trifluoromethyl-[1,2,4]triazolo[4,3-a]quinoxaline-4-ylamino)-butyl]-3-methyl-butyramide], the IC50 in test [1] (setting [3]) was at most 50 nM; in test [1] (setting [6]) it was 34 nM; in test [2] (setting [4]) it was 480 nM.
Take `COc1cc2nc(NCCCCNC(=O)[C@@H](O)C(C)C)c3nnc(C)n3c2cc1C(F)(F)F` [Example 479, 2-(S)-hydroxy-N-[4-(7-methoxy-1-methyl-8-trifluoromethyl-[1,2,4]triazolo[4,3-a]quinoxaline-4-ylamino)-butyl]-3-methyl-butyramide]: the values for the IC50 in test [1] (setting [3]), in test [1] (setting [6]) and in test [2] (setting [4]) were at most 10 nM, 5 nM and 240 nM, respectively.
On to `COc1cc2nc(NCCCCNC(=O)Cc3cccs3)c3nnc(C)n3c2cc1C(F)(F)F` [Example 480, N-[4-(7-methoxy-1-methyl-8-trifluoromethyl-[1,2,4]triazolo[4,3-a]quinoxaline-4-ylamino)-butyl]-2-thiophene-2-yl-acetamide], for which the IC50 in test [1] (setting [3]) is at most 10 nM; in test [1] (setting [6]), 9 nM; in test [2] (setting [5]), at most 200 nM; in test [2] (setting [4]) it was 80 nM.
In the case of `Cc1nnc2c(NCCCCNC(=O)OC(C)(C)C)nc3cc(-n4ccnc4)ccc3n12` [Example 490, [4-(7-imidazole-1-yl-1-methyl-[1,2,4]triazolo[4,3-a]quinoxaline-4-ylamino)-butyl]-carbamic acid-tert-butylester], the IC50 in test [1] (setting [3]) is at most 10 nM; in test [1] (setting [6]), 9 nM; in test [2] (setting [5]) it was at most 200 nM; in test [2] (setting [4]), 190 nM.
The corresponding values for `Cc1nnc2c(NCCCCNC(=O)CC(C)C)nc3cc(-n4ccnc4)ccc3n12` [Example 492, N-[4-(7-imidazole-1-yl-1-methyl-[1,2,4]triazolo[4,3-a]quinoxaline-4-ylamino)-butyl]-3-methyl-butyramide] are at most 50 nM, 13 nM, at most 200 nM and 80 nM.
For `Cc1nnc2c(NCCCCNC(=O)OCC(C)C)nc3cc(-n4ccnc4)ccc3n12` [Example 493], the IC50 in test [1] (setting [3]) is at most 10 nM; in test [1] (setting [6]), 5 nM; in test [2] (setting [5]) it was at most 200 nM; in test [2] (setting [4]), 48 nM.

What is called IC50 is the point on the concentration scale where inhibition reaches its midpoint.

Source of the values: US11028090B2 (Dong Wha Pharm. Co., Ltd., priority 2017, dated 2021).
